In assay [1] the target is T1, interaction between BRD2 and E3 ligase DCAF16 (Homo sapiens, UniProt P25440).
T1 construct: expressed in transfected cells; host or cells: HEK293
The assay is described as follows: Verification of BET-DCAF16 interaction, comparative test with known compounds (Test Example 8). It is filed as cell-based. The following applies: test compound 1.0 μmol/L; HEK293 cells expressing Nluc-BRD2 and DCAF16-HaloTag; MLN4924 instead of bortezomib; substrate diluted 200-fold. The method, then:
Cultured HEK293 cells were washed with DPBS, no calcium, no magnesium (DPBS: Code No. 14190144, Thermo Fisher Scientific) and harvested using TrypLE™ Express Enzyme (1×), phenol red (TrypLE: Code No. 12605036, Thermo Fisher Scientific), and prepared to be 4.0×10^5 cells/mL in DMEM. A volume of 12 mL of the cell suspension was seeded in a Falcon® 100 mm×20 mm cell culture dish and cultured in a carbon dioxide gas incubator at 37° C. for 6 hours. For one dish, 12 μg of pFC27K_DCAF16, 0.12 μg of p FN31A_BRD2, 48 μL of FuGENE® HD Transfection Reagent (Code No. E2312, Promega) were added to 600 μL of Opti-MEM™ I Reduced Serum Medium, no phenol red (Opti-MEM: Code No. 11058021, Thermo Fisher Scientific) and mixed. The mixture was allowed to stand for 15 minutes and added to HEK293 cells. After 20 hours, the cells were washed with DPBS, no calcium, no magnesium, harvested from the dish using TrypLE, and then neutralized in DMEM. After centrifugation, the supernatant was discarded, and the cells were prepared to be 2.2×10^5 cells/mL using Opti-MEM containing 4% FBS. HaloTag® NanoBRET™ 618 Ligand contained in NanoBRET™ Nano-Glo® Detection System (Code No. N1662, Promega) and bortezomib as a proteasome inhibitor were added to be a 1000-fold dilution. In addition, a group was prepared to which DMSO was added instead of HaloTag® NanoBRET™ 618 Ligand. 90 μL of the cell suspension was seeded in CulturPlate-96 (Code No. 6005688, PerkinElmer), and allowed to stand in a carbon dioxide gas incubator at 37° C. for 30 minutes. A volume of 10 mmol/L of a solution of the test compound in DMSO was adjusted to be 100 μmol/L with Opti-MEM, 10 μL of the solution was added to each well, and then the mixture was allowed to stand in a carbon dioxide gas incubator at 37° C. for 2 hours. At this time, all the groups were prepared so that the final concentration of DMSO was 0.1 vol % including the group to which the test compound was not added. NanoBRET™ Nano-Glo® Substrate included in the NanoBRET™ Nano-Glo® Detection System was diluted 100-fold with Opti-MEM. After adding 25 μL of the dilution each and stirring for 30 seconds, measurement was performed with an Emission Filter of 460 nm and 620 nm using EnVision (PerkinElmer). The BRET ratio of 10 μmol/L for each test compound was calculated using the following formula. The experiment was performed by n=3 and the average value was calculated.
BRET ratio={(A/B)−(C/D)}×1000 • A: value at 620 nm filter of the well with addition of test compound and 618 Ligand • B: value at 460 nm filter of the well with addition of test compound and 618 Ligand • C: value at 620 nm filter of the well without addition of test compound or 618 Ligand • D: value at 460 nm filter of the well without addition of test compound or 618 Ligand
For comparison with the known comparative compound 1, the enhancement of the BET-DCAF16 interaction was verified by the same method as in test example 7. However, for the purpose of system optimization, bortezomib was changed to Neddylation inhibitor MLN4924 (Code No. HY-10484, MedChem Express), and the dilution ratio of NanoBRET™ Nano-Glo® Substrate was set to 200-fold. The BRET ratio of 1.0 μmol/L of each test compound was calculated, and the results are shown as in Table 23 below.

Assay [2] has as its system MYC mRNA expression in SU-DHL-4 cells. As to the kind of experiment: Suppressive effect on MYC mRNA expression (Test Example 2). It is filed as cell-based, human. Particulars: test compound 100 nmol/L, 6 hours, qRT-PCR corrected by ACTB, GAPDH; for Suppression Rate of MYC mRNA Expression (%): HPRT1. In a few lines:
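SU-DHL-4 cells were treated for 6 h at 37 °C with compound (0.1% DMSO final). MYC mRNA was measured by TaqMan qRT-PCR and normalised to the geometric mean of ACTB, GAPDH and HPRT1. Suppression was calculated relative to untreated wells.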

T1 sequence (P25440 whole entry): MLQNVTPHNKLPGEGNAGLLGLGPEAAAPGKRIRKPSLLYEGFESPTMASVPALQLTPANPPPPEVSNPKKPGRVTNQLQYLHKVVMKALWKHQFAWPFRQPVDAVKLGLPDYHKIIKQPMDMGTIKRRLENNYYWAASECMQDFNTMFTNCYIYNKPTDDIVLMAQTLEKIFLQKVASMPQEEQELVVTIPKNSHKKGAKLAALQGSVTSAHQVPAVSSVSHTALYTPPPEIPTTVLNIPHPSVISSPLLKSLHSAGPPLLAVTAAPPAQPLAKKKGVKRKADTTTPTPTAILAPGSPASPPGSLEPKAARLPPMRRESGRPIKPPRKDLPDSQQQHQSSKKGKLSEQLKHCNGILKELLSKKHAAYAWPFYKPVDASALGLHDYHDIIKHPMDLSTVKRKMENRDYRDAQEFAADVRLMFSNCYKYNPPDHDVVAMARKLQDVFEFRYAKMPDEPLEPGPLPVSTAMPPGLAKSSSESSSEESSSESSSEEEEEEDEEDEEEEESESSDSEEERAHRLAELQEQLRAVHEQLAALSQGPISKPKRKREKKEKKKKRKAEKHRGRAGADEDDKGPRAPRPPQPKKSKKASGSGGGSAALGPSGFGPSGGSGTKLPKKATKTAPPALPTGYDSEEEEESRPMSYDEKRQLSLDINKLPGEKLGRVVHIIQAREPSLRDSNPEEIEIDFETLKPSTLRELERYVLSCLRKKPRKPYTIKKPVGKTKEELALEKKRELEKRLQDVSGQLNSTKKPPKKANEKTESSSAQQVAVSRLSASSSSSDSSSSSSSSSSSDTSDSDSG
T1 sequence (Q9NXF7 whole entry partner): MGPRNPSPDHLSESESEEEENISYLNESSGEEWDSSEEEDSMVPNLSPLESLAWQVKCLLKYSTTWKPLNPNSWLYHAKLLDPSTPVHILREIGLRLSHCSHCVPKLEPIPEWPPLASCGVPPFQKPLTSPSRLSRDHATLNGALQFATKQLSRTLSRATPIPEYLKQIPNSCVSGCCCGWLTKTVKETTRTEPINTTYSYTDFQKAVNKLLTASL

On to `CCC(=O)N1c2ccccc2[C@H](Nc2ccc(C(=O)NCC(=O)CNC(=O)c3ccc(N[C@@H]4C[C@H](C)N(C(=O)CC)c5ccccc54)cc3)cc2)C[C@@H]1C` [Compound 1l, N,N′-(2-Oxopropane-1,3-diyl)bis(4-{[(2S,4R)-2-methyl-1-propionyl-1,2,3,4-tetrahydroquinolin-4-yl]amino}benzamide)], for which the “BRET Ratio” value in assay [1] is 14.93. Moreover, the inhibition at 0.1 µM in assay [2] (Homo sapiens, HPRT1, read-out: Suppression Rate of MYC mRNA Expression (%)) was 98.5%.
For the molecule `CCC(=O)N1c2ccccc2[C@H](Nc2ccc(NC(=O)CCCC(=O)Nc3ccc(Cn4c(C(=O)OCCN(C)C)cc5c4CCCC5=O)cc3)cc2)C[C@@H]1C` [Compound 15a, 2-(Dimethylamino)ethyl 1-(4-(5-((4-(((2S,4R)-2-methyl-1-propionyl-1,2,3,4-tetrahydroquinolin-4-yl)amino)phenyl)amino)-5-oxopentanamide)benzyl)-4-oxo-4,5,6,7-tetrahydro-1H-indole-2-carboxylate], the “BRET Ratio” value in assay [1] was 9.59. In assay [2], the “Suppression Rate of MYC mRNA Expression (%)” value came out at 97.6%.
On the same counts, the results for `CCNC(=O)C[C@@H]1N=C(c2ccc(SCCCCSc3ccc(C4=N[C@@H](CC(=O)NCC)c5nnc(C)n5-c5ccc(OC)cc54)cc3)cc2)c2cc(OC)ccc2-n2c(C)nnc21` [compound 1, 2,2′-((4S,4'S)-6,6′-((butane-1,4-diylbis(sulfanediyl))bis(4,1-phenylene))bis(8-methoxy-1-methyl-4H-benzo[f][1,2,4]triazolo[4,3-a][1,4]diazepine-6,4-diyl))bis(N-ethylacetamide), reference compound] are 1.93 and 61.7%.

For the origin of these results see patent US20220378923A1, “BET DEGRADER” (KYOWA KIRIN CO., LTD., priority 2019, published 2022).
